The text below walks through data of US20030032587A1, “Urocortin peptides” (The Salk Institute for Biological Studies, priority 1995, published 2003).

Read-outs that look alike come from different tables or passages of the source. Where no end group is shown, it is not given here.

Experiment [1] concerns rats. The experiment can be described thus: fall in mean arterial blood pressure after peripheral (iv) administration. The experiment is classed as in vivo.
Experiment [2] concerns rats. The experiment can be described thus: ACTH secretion in vivo, ACTH level in plasma.
The target of the next experiment is T1, murine CRF-R2β (Mus musculus, UniProt Q60748).
T1 construct: expressed in transfected cells
T1 sequence (Q60748 1-431 isoform Q60748-2): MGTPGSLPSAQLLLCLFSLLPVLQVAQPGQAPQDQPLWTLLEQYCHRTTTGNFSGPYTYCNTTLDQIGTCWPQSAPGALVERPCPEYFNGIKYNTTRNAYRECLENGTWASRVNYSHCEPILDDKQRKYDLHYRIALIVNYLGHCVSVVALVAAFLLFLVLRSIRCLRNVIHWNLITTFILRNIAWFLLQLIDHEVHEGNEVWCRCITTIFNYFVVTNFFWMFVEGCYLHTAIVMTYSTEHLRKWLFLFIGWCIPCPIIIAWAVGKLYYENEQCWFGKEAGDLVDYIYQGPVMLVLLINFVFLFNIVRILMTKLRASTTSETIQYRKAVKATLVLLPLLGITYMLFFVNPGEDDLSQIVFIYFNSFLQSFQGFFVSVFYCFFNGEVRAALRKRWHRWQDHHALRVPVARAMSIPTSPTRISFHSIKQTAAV
The experiment can be described thus: elevation of intracellular cAMP in cells expressing mCRF-R2β. The format is cell-based. The conditions noted are these: read-out: ED50, elevation of cAMP. From the text: CRF-R is used to refer to a family of receptor protein subtypes which participate in the G-protein-coupled response of cells to CRF and Ucn-like ligands. CRF-Rs are coupled by heterotrimeric G-proteins to various intracellular enzymes, ion channels, and transporters. The G-proteins associate with the receptor proteins at the intracellular face of the plasma membrane. An agonist binding to a CRF-R catalyzes the exchanges of GTP for GDP on the α-subunit (G-protein “activation”), resulting in its dissociation and stimulation of one (or more) of the various signal-transducing enzymes and channels. G-protein preferentially stimulates particular effectors, and the specificity of signal transduction may be determined, therefore, by the specificity of G-protein/receptor interaction. CRF-R proteins mediate signal transduction through the modulation of adenylate cyclase and perhaps through PI turnover. For example, when CRF or Ucn binds to and activates the CRF-R, adenylate cyclase causes an elevation in the level of intracellular cAMP. […] Such transformed cells are monitored for either an increase or decrease in the level of intracellular CAMP which provides a determination of the effectiveness of the potential agonist or antagonist. Methods for measuring intracellular levels of cAMP, or measuring cyclase activity, are well known in the art.

Experiment [3] addresses T2, human CRF binding protein (hCRF-BP) (Homo sapiens, UniProt P24387).
T2 construct: made in house; host or cells: recombinant CHO cells, conditioned medium
T2 sequence (P24387 25-322): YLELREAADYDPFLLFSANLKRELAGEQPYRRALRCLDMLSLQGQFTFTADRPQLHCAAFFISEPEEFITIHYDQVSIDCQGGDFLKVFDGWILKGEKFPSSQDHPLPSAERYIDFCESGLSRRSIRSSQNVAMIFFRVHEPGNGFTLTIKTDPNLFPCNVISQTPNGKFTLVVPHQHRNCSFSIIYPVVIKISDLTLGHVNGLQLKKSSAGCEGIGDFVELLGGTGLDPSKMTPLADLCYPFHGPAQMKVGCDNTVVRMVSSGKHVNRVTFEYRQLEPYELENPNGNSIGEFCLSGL
Nature of the experiment: competitive hCRF-BP ligand binding assay. As to conditions: radioligand 125I[Nle21,Tyr32]-oCRF.

Experiment [4] has as its system primary murine anterior pituitary cells. The experiment is classed as cell-based. The conditions noted are these: for EC50: read-out: EC50, secretion of ACTH. From the text: A straightforward assay using rat anterior pituitary cells in monolayer culture can be carried out to determine whether a candidate peptide thereof will function as a CRF agonist and stimulate ACTH secretion by activating CRF receptors on such cells. The procedure which is used is that generally set forth in Endocrinology, 91, supra. A very similar assay is used to test for antagonistic properties, using a challenge dose of oCRF or the like.
To test the ability of purified Ucn or another candidate Ucn-like peptide to function as a CRF agonist and to promote ACTH production and/or secretion, cultures of dispersed primary murine anterior pituitary cells (0.15×10^6 cells/well are used), as generally described in Vale et al. Meth. Enzym., 103, 565-577 (1983), and in Endocrinology, 91, 562 (1972). These cultures are maintained in 0.5 ml/well of β-PJ (a reagent available from Kansas City Biochemicals) containing 2% fetal bovine serum. On the morning of culture day 5, the cells are washed 3 times with β-PJ containing 0.1% bovine serum albumin and then incubated for 1 hour at 37° C. in the same medium. The medium is then replaced with Ucn, or an analog thereof, diluted in β-PJ containing 0.1% bovine serum albumin. Incubations are terminated after 3 hours, at which time the medium is removed and stored at −20° C. until ACTH radioimmunoassays are performed using a suitable kit, such as that commercially available from Diagnostic Products Corporation of Los Angeles, Calif. Secreted ACTH is measured using Allfit computer program with results expressed as the average±s.e.m. of 3 replicate bioassays.

Another experiment concerns human CRF-R2β. The experiment can be described thus: competitive displacement binding assay, CRF-R2β stably expressed in CHO cells. The conditions noted are these: read-out: Ki (95% confidence limits); CRF-R2β in stably transfected CHO cells; displacement of [125I-Tyr0]Ucn. The method, then:
Binding assays with cells expressing human CRF-R1 are carried out as described in the Chen et al. P.N.A.S., supra. The affinities of test peptides for CRF-R1 and CRF-R2β stably expressed in CHO cells were determined by competitive displacement of ^125I-(Nle^21, Tyr^32) ovine CRF (for CRF-R1) or of [^125II-Tyr^∘]Ucn (for CRF-R2β) as described.
For orientation: Loss of bound radioactivity is the signal in a displacement assay; it reports binding, not function.

For experiment [5], the target named is CRF receptors on anterior pituitary cells in culture. The experiment can be described thus: cell-based or functional assay.
Experiment [6] deals with human CRF-R2β, stably transfected CHO cells (human) (UniProt Q13324). The experiment can be described thus: competitive displacement of [125I-Tyr0]Ucn from stably transfected CHO cells expressing human CRF-R2β; 95% confidence limits in brackets.
Experiment [7] concerns the target T3, human CRF binding protein (human, UniProt P24387 25-322).
T3 construct: also called hCRF-BP; CRF-BP
T3 sequence (looked up): T2 sequence (P24387 25-322)
The experiment can be described thus: competitive hCRF-BP ligand binding assay with 125I[Nle21,Tyr32]-oCRF.

In experiment [8] the target is T4, human CRF-R1 (cloned hCRF-R1), stably expressed in CHO cells (human, UniProt P34998 24-415).
T4 construct: whole, on cells; also called hCRF-RA
T4 sequence (looked up): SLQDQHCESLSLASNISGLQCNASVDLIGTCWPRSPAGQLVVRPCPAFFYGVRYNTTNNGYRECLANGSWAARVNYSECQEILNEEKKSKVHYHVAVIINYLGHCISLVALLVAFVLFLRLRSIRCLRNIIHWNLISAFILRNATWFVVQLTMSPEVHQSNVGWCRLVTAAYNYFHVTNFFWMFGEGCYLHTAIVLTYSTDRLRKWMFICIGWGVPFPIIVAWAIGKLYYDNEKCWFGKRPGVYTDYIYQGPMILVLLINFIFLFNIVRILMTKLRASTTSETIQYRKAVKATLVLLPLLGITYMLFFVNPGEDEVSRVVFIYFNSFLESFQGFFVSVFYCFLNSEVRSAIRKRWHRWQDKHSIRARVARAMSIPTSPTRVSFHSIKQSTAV
Nature of the experiment: competitive displacement of 125I-(Nle21,Tyr32) ovine CRF from CHO cells stably expressing hCRF-R1; LIGAND program, 95% confidence limits in brackets. The method, then:
Binding assays with cells expressing human CRF-R1 are carried out as described in the Chen et al. P.N.A.S., supra.

For experiment [9], the target named is T3, human CRF binding protein. The experiment can be described thus: competitive hCRF-BP ligand binding assay with [125I-DTyr0]hCRF; reference peptide. The method, then:
After incubating with the primary and secondary antisera for 30 minutes each, 1 ml of saline wash is added, and the test tubes are centrifuged at 2000× g for 20 minutes at 4° C. Precipitates are counted in a gamma counter. Inhibitory binding affinity constant (Kᵢ) values are determined using parameters calculated by the LIGAND computer program, Munson et al., Anal. Biochem., 107, 220 (1980), and a Vax/VMS computer system.

The target of experiment [10] is CRF receptors on anterior pituitary cells in culture. Nature of the experiment: cell-based or functional assay. This is another data set of the same source.

As for `CC[C@H](C)[C@H](NC(=O)[C@H](CO)NC(=O)[C@H](CC(C)C)NC(=O)[C@@H]1CCCN1C(=O)[C@@H]1CCCN1C(=O)[C@H](CC(=O)O)NC(=O)[C@@H](N)CC(=O)O)C(=O)N[C@@H](CC(=O)O)C(=O)N[C@@H](CC(C)C)C(=O)N[C@H](C(=O)N[C@@H](Cc1ccccc1)C(=O)N[C@@H](Cc1c[nH]cn1)C(=O)N[C@@H](CC(C)C)C(=O)N[C@@H](CC(C)C)C(=O)N[C@@H](CCCNC(=N)N)C(=O)N[C@H](C(=O)N[C@@H](CC(C)C)C(=O)N[C@@H](CC(C)C)C(=O)N[C@@H](CCC(=O)O)C(=O)N[C@@H](CC(C)C)C(=O)N[C@@H](C)C(=O)N[C@@H](CCCNC(=N)N)C(=O)N[C@H](C(=O)N[C@@H](CCC(N)=O)C(=O)N[C@@H](CO)C(=O)N[C@@H](CCC(N)=O)C(=O)N[C@@H](CCCNC(=N)N)C(=O)N[C@@H](CCC(=O)O)C(=O)N[C@@H](CCCNC(=N)N)C(=O)N[C@@H](C)C(=O)N[C@@H](CCC(=O)O)C(=O)N[C@@H](CCC(N)=O)C(=O)N[C@@H](CC(N)=O)C(=O)N[C@@H](CCCNC(=N)N)C(=O)N[C@H](C(=O)N[C@H](C(=O)N[C@@H](Cc1ccccc1)C(=O)N[C@@H](CC(=O)O)C(=O)N[C@@H](CO)C(=O)N[C@H](C(N)=O)C(C)C)[C@@H](C)CC)[C@@H](C)CC)[C@@H](C)O)[C@@H](C)O)[C@@H](C)O` [rUcn], the “fall in mean arterial blood pressure” value with rats [1] (administered peripherally, e.g. iv, dose as low as 250 ng for a rat of about 250 to 275 grams) is recorded as “marked fall”. Also, the “lowers blood pressure, times as much as either sfUI or r/hCRF” value with rats [1] (dose of about 3.77 μg/kg) is 2-3 times. The “ACTH level in plasma” value in the experiment on rats [2] (1 μg/kg dose, at 30 minutes) was 659 ± 53 pg/mL. For the same molecule, the “ACTH level in plasma, effect compared with r/hCRF” value in the experiment with rats [2] (at 1 hour and at 2 hours) is “greater effect continues”. Also, on murine CRF-R2β, the EC50 worked out at 0.18 ± 0.04 nM. Also, in experiment [3], the “binding to hCRF-BP compared with sauvagine and sfUI” value was “much more strongly than does sauvagine, but less strongly than sfUI”; the “binds hCRF-BP more strongly than r/hCRF, factor” value is “about 2”. Moreover, in experiment [4] (cultured rodent pituitary cells), the “biopotency for ACTH secretion compared with oCRF” value is on record as “more potent than oCRF”. For the same molecule, the “stimulates the secretion of ACTH and β-END-LI (β-endorphin)” value in experiment [4] (result in words) is listed as “strongly stimulates”. Moreover, the Ki – broadly, the dissociation constant of the complex between target and ligand, obtained from inhibition or displacement – in the experiment with human CRF-R2β amounted to 0.41 nM.
As to `CC[C@H](C)[C@H](NC(=O)[C@@H](NC(=O)[C@H](CC(=O)O)NC(=O)[C@H](CC(C)C)NC(=O)[C@H](CC(C)C)NC(=O)[C@H](CC(C)C)NC(=O)[C@H](CCCNC(=N)N)NC(=O)[C@H](CC(N)=O)NC(=O)[C@H](CC(N)=O)NC(=O)[C@H](C)NC(=O)[C@H](C)NC(=O)[C@H](CCC(N)=O)NC(=O)[C@H](CCC(N)=O)NC(=O)[C@H](CCCCN)NC(=O)[C@H](CCC(=O)O)NC(=O)[C@H](CCCCN)NC(=O)[C@H](CCC(=O)O)NC(=O)[C@H](CCC(N)=O)NC(=O)[C@H](CCCCN)NC(=O)[C@H](CCC(=O)O)NC(=O)[C@@H](NC(=O)[C@H](CCC(=O)O)NC(=O)[C@@H](NC(=O)[C@H](CCSC)NC(=O)[C@H](CCCCN)NC(=O)[C@H](CCCNC(=N)N)NC(=O)[C@H](CC(C)C)NC(=O)[C@H](CC(C)C)NC(=O)[C@H](CCC(=O)O)NC(=O)[C@H](CC(C)C)NC(=O)[C@H](CO)NC(=O)[C@H](CC(C)C)NC(=O)[C@H](CC(=O)O)NC(=O)[C@@H](NC(=O)[C@H](CO)NC(=O)[C@@H](NC(=O)[C@@H]1CCCN1C(=O)[C@@H]1CCCN1C(=O)CNC(=O)[C@@H]1CCC(=O)N1)[C@@H](C)CC)[C@@H](C)CC)[C@@H](C)CC)[C@@H](C)CC)[C@@H](C)O)C(N)=O` [sauvagine, reference compound], in experiment [4] (cultured rodent pituitary cells, incubation 3 hours, average±s.e.m.), the EC50 is about 0.033 nM. Also, the inhibition constant Ki in the experiment with human CRF-R2β came to 2 nM.
In the case of “H-NDDPPISIDLTFHLLRNMIEMARIENEREQAGLNRKYLDEV-NH2 [sfUI, reference compound]”, the EC50 on murine CRF-R2β was 0.74 nM; in experiment [4] (cultured rodent pituitary cells, no unit printed for this value), 0.017 ± 0.003 nM. The Ki in the experiment on human CRF-R2β was determined as 3 nM.
As for [Tyr0]rUcn(1-40) (peptide), the ACTH secretion, anterior pituitary cell cultures, potency relative to r/hCRF in experiment [5] was found to be 2.2 times r/hCRF.
In [6], rat urocortin (rat Ucn) (peptide) registered a Ki of 0.41 nM.
Turning to NDDPPISIDLTFHLLRNMIEMARIENEREQAGLNRKYLDEV-NH2 (also called sfUI; suckerfishUI) [suckerfish urotensin I], the figures for the inhibitory constant (Ki) in experiment [6] and in experiment [8] were 3 nM and about 0.43 nM, respectively. Further, the binding result in experiment [7] was “binds”.
Turning to DLTFHLLREVLEMARAEQLAQQAHS [hCRF(9-33)], the binding result in [9] was “binds”.
Consider SEEPPISLDLTFHLLREVLEMARAEQLAQQAHSNRKLMEII-NH2 (also called r/hCRF; rCRF) [rat/human CRF], for which the EC50, secretion of ACTH in cultured rodent pituitary cells in experiment [10] was 0.043 nM. The binding result in [7] is “binds”.
